Measured values taken from patent US20200055839A1 (priority 2017, published 2020).

tested on: NL-RLuc virus; experiment: Inhibition of HIV replication (NL-RLuc virus, luciferase readout in MT-2 cells); assay type: cell-based; conditions: Human immunodeficiency virus 1, MT2, 120 h, MT-2 cells infected with NL-RLuc virus, 5 days of incubation, 10% FBS, at least 2 experiments
Method in brief: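 MT-2 cells infected with NL4-3-derived virus carrying Renilla luciferase in place of part of nef, grown 5 days with serial compound dilutions in RPMI 1640/10% FBS. Virus growth read as luciferase expression. EC50 from median effect equation, at least 2 experiments.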

Going from `Cc1nc(NC2CCN(C)CC2)c(-c2ccc(OCCc3ccc(F)cc3)cc2)c(N2CCC(C)(C)CC2)c1[C@H](OC(C)(C)C)C(=O)O` [Example 25, (S)-2-(tert-Butoxy)-2-(4-(4,4-dimethylpiperidin-1-yl)-5-(4-(4-fluorophenethoxy)phenyl)-2-methyl-6-((1-methylpiperidin-4-yl)amino)pyridin-3-yl)acetic acid] to `Cc1nc(NCCCN(C)C)c(-c2ccc(OCCc3ccc(F)cc3)cc2)c(N2CCC(C)(C)CC2)c1[C@H](OC(C)(C)C)C(=O)O` [Example 40, (S)-2-(tert-Butoxy)-2-(6-((3-(dimethylamino)propyl)amino)-4-(4,4-dimethylpiperidin-1-yl)-5-(4-(4-fluorophenethoxy)phenyl)-2-methylpyridin-3-yl)acetic acid], the EC50 rises from 0.8 nM to 2 nM (2.5-fold).

Going from `Cc1ncc(-c2cccc(F)c2Cl)c(N2CCC(C)(C)CC2)c1[C@H](OC(C)(C)C)C(=O)O` [Example 165, (2S)-2-(tert-Butoxy)-2-[5-(2-chloro-3-fluorophenyl)-4-(4,4-dimethylpiperidin-1-yl)-2-methylpyridin-3-yl]acetic acid] to `Cc1ncc(-c2ccccn2)c(N2CCC(C)(C)CC2)c1[C@H](OC(C)(C)C)C(=O)O` [Example 186, (2S)-2-(tert-Butoxy)-2-[4′-(4,4-dimethylpiperidin-1-yl)-6′-methyl-[2, 3′-bipyridine]-5′-yl]acetic acid], the EC50 rises from 8 nM to 37 nM (4.6-fold).

`CC1(C)CCN(c2c(-c3ccc(OCCc4ccc(F)cc4)cc3)cnc(CF)c2[C@H](OC(C)(C)C)C(=O)O)CC1` [Example 7, (S)-2-(tert-Butoxy)-2-(4-(4,4-dimethylpiperidin-1-yl)-2-(fluoromethyl)-5-(4-(4-fluorophenethoxy)phenyl)pyridin-3-yl)acetic acid] and `Cc1nc(OCCO)c(-c2ccc(OCCc3ccc(F)cc3)cc2)c(N2CCC(C)(C)CC2)c1[C@H](OC(C)(C)C)C(=O)O` [Example 103, (S)-2-(tert-Butoxy)-2-(4-(4,4-dimethylpiperidin-1-yl)-5-(4-(4-fluorophenethoxy)phenyl)-6-(2-hydroxyethoxy)-2-methylpyridin-3-yl)acetic acid] are the same in EC50: 2 nM for the first, 2 nM for the second.

First: Cc1cccc(COc2ccc(-c3cnc(C)c([C@H](OC(C)(C)C)C(=O)O)c3N3CCC(C)(C)CC3)nc2)c1 [Example 347, (2S)-2-(tert-butoxy)-2-[4′-(4,4-dimethylpiperidin-1-yl)-6′-methyl-5-[(3-methylphenyl)methoxy]-[2,3′-bipyridine]-5′-yl]acetic acid]
Second: Cc1ccccc1COc1ccc(-c2cnc(C)c([C@H](OC(C)(C)C)C(=O)O)c2N2CCC(C)(C)CC2)nc1 [Example 346, (2S)-2-(tert-butoxy)-2-[4′-(4,4-dimethylpiperidin-1-yl)-6′-methyl-5-[(2-methylphenyl)methoxy]-[2,3′-bipyridine]-5′-yl]acetic acid]
The EC50 of the first is 5-fold lower: 1 nM for the first, 5 nM for the second. The first is the more potent here.

Compared with `Cc1cc(F)ccc1CCOc1ncc(-c2cnc(C)c([C@H](OC(C)(C)C)C(=O)O)c2N2CCC(C)(C)CC2)cc1F` [Example 398, (2S)-2-(tert-butoxy)-2-[4-(4,4-dimethylpiperidin-1-yl)-5′-fluoro-6′-[2-(4-fluoro-2-methylphenyl)ethoxy]-6-methyl-[3,3′-bipyridine]-5-yl]acetic acid], `Cc1ncc(-c2cnc(OCCC(C)C)c(F)c2)c(N2CCC(C)(C)CC2)c1[C@H](OC(C)(C)C)C(=O)O` [Example 368, (2S)-2-(tert-butoxy)-2-[4-(4,4-dimethylpiperidin-1-yl)-5′-fluoro-6-methyl-6′-(3-methylbutoxy)-[3,3′-bipyridine]-5-yl]acetic acid] is 2-fold lower in EC50: 2 nM for the first, 1 nM for the second.

Compared with `Cc1ncc(-c2ccc(CCC(C)C)cn2)c(N2CCC(C)(C)CC2)c1[C@H](OC(C)(C)C)C(=O)O` [Example 273, (S)-2-(tert-Butoxy)-2-(4′-(4,4-dimethylpiperidin-1-yl)-5-isopentyl-6′-methyl-[2, 3′-bipyridin]-5′-yl)acetic acid], `Cc1ncc(-c2ccc(OCCC(C)C)cn2)c(N2CCC(C)(C)CC2)c1[C@H](OC(C)(C)C)C(=O)O` [Example 315, (2S)-2-(tert-butoxy)-2-[4′-(4,4-dimethylpiperidin-1-yl)-6′-methyl-5-(3-methylbutoxy)-[2,3′-bipyridine]-5′-yl]acetic acid] is 2-fold lower in EC50: 4 nM for the first, 2 nM for the second. The second is the more potent here.

Going from `Cc1ncc(-c2ccc(OCCCCc3ccccc3)cn2)c(N2CCC(C)(C)CC2)c1[C@H](OC(C)(C)C)C(=O)O` [Example 341, (2S)-2-(tert-butoxy)-2-[4′-(4,4-dimethylpiperidin-1-yl)-6′-methyl-5-(4-phenylbutoxy)-[2,3′-bipyridine]-5′-yl]acetic acid] to `Cc1ncc(-c2ccc(OCCc3ccccc3Cl)cn2)c(N2CCC(C)(C)CC2)c1[C@H](OC(C)(C)C)C(=O)O` [Example 302, (2S)-2-(tert-butoxy)-2-{5-[2-(2-chlorophenyl)ethoxy]-4′-(4,4-dimethylpiperidin-1-yl)-6′-methyl-[2,3′-bipyridine]-5′-yl}acetic acid], the EC50 falls from 3 nM to 0.6 nM (5-fold). The second is the more potent here.

`Cc1nc(-c2cnn(C3CC3)c2)c(-c2ccc(OCCc3ccc(F)cc3)cc2)c(N2CCC(C)(C)CC2)c1[C@H](OC(C)(C)C)C(=O)O` [Example 47, (S)-2-(tert-Butoxy)-2-(6-(1-cyclopropyl-H-pyrazol-4-yl)-4-(4,4-dimethylpiperidin-1-yl)-5-(4-(4-fluorophenethoxy)phenyl)-2-methylpyridin-3-yl)acetic acid] and `Cc1nc(-n2ccnc2)c(-c2ccc(OCCc3ccc(F)cc3)cc2)c(N2CCC(C)(C)CC2)c1[C@H](OC(C)(C)C)C(=O)O` [Example 45, (S)-2-(tert-Butoxy)-2-(4-(4,4-dimethylpiperidin-1-yl)-5-(4-(4-fluorophenethoxy)phenyl)-6-(1H-imidazol-1-yl)-2-methylpyridin-3-yl)acetic acid] are the same in EC50: 4 nM for the first, 4 nM for the second.

First: Cc1ncc(-c2cnc(OCC(C)C)c(Cl)c2)c(N2CCC(C)(C)CC2)c1[C@H](OC(C)(C)C)C(=O)O [Example 417, (S)-2-(tert-Butoxy)-2-(5′-chloro-4-(4,4-dimethylpiperidin-1-yl)-6′-isobutoxy-6-methyl-[3,3′-bipyridin]-5-yl)acetic acid]
Second: Cc1cc(-c2cnc(C)c([C@H](OC(C)(C)C)C(=O)O)c2N2CCC(C)(C)CC2)cnc1OCC(C)C [Example 428, (S)-2-tert-Butoxy-2-(4-(4,4-dimethylpiperidin-1-yl)-6′-isobutoxy-5′,6-dimethyl-3, 3′-bipyridin-5-yl)acetic acid]
The EC50 of the first is 1.7-fold higher: 12 nM for the first, 7 nM for the second.

`COc1ccc(CCOc2ccc(-c3cnc(C)c([C@H](OC(C)(C)C)C(=O)O)c3N3CCC(C)(C)CC3)nc2)cc1` [Example 293, (2S)-2-(tert-butoxy)-2-[4′-(4,4-dimethylpiperidin-1-yl)-5-[2-(4-methoxyphenyl)ethoxy]-6′-methyl-[2,3′-bipyridine]-5′-yl]acetic acid] and `Cc1ncc(-c2ccc(OCCc3cccc(Cl)c3)cn2)c(N2CCC(C)(C)CC2)c1[C@H](OC(C)(C)C)C(=O)O` [Example 308, (2S)-2-(tert-butoxy)-2-{5-[2-(3-chlorophenyl)ethoxy]-4′-(4,4-dimethylpiperidin-1-yl)-6′-methyl-[2,3′-bipyridine]-5′-yl}acetic acid] are within 1.5-fold of each other in EC50: 1 nM for the first, 0.7 nM for the second.

First: Cc1ncc(-c2ccc(CCC(C)C)nc2)c(N2CCC(C)(C)CC2)c1[C@H](OC(C)(C)C)C(=O)O [Example 420, (S)-2-(tert-Butoxy)-2-(4-(4,4-dimethylpiperidin-1-yl)-6′-isopentyl-6-methyl-[3, 3′-bipyridin]-5-yl)acetic acid]
Second: Cc1ncc(-c2cnc(NCC(C)C)c(F)c2)c(N2CCC(C)(C)CC2)c1[C@H](OC(C)(C)C)C(=O)O [Example 415, (S)-2-(tert-Butoxy)-2-(4-(4,4-dimethylpiperidin-1-yl)-5′-fluoro-6′-(isobutylamino)-6-methyl-[3, 3′-bipyridin]-5-yl)acetic acid]
The EC50 of the first is 6.5-fold higher: 13 nM for the first, 2 nM for the second.

`Cc1nc(CN2CCC3(CCC3)CC2)c(-c2cc(F)c(F)c(F)c2)c(N2CCC(C)(C)CC2)c1[C@H](OC(C)(C)C)C(=O)O` [Example 193, (2S)-2-[6-({7-Azaspiro[3.5]nonan-7-yl}methyl)-4-(4,4-dimethylpiperidin-1-yl)-2-methyl-5-(3,4,5-trifluorophenyl)pyridin-3-yl]-2-(tert-butoxy)acetic acid] and `CCCCNc1ncc(-c2cnc(C)c([C@H](OC(C)(C)C)C(=O)O)c2N2CCC(C)(C)CC2)cc1F` [Example 414, (S)-2-(tert-Butoxy)-2-(6′-(butylamino)-4-(4,4-dimethylpiperidin-1-yl)-5′-fluoro-6-methyl-[3,3′-bipyridin]-5-yl)acetic acid] are within 1.5-fold of each other in EC50: 4 nM for the first, 3 nM for the second.

Going from `CCC(C)(C)O[C@H](C(=O)O)c1c(C)ncc(-c2ccc(OCCc3ccccc3)cc2)c1N1CCC(C)(C)CC1` [Example 264, (S)-2-(4-(4,4-Dimethylpiperidin-1-yl)-2-methyl-5-(4-phenethoxyphenyl)pyridin-3-yl)-2-(tert-pentyloxy)acetic acid] to `Cc1ncc(-c2ccc3ccccc3c2)c(N2CCC(C)(C)CC2)c1[C@H](OC(C)(C)C)C(=O)O` [Example 183, (2S)-2-(tert-Butoxy)-2-[4-(4,4-dimethylpiperidin-1-yl)-2-methyl-5-(naphthalen-2-yl)pyridin-3-yl]acetic acid], the EC50 rises from 3 nM to 6 nM (2-fold).

`Cc1ncccc1Nc1nc(C)c([C@H](OC(C)(C)C)C(=O)O)c(N2CCC(C)(C)CC2)c1-c1ccc(OCCc2ccc(F)cc2)cc1` [Example 94, (S)-2-(tert-Butoxy)-2-(4-(4,4-dimethylpiperidin-1-yl)-5-(4-(4-fluorophenethoxy)phenyl)-2-methyl-6-((2-methylpyridin-3-yl)amino)pyridin-3-yl)acetic acid] showed an EC50 of 6 nM.

same assay, conditions: MT-2 cells infected with NL-RLuc virus, 5 days of incubation, 10% FBS, at least 2 experiments

Going from `Cc1nc(C(C)(C)O)c(-c2ccc(OCCc3ccc(F)cc3)c(F)c2)c(N2CCC(C)(C)CC2)c1[C@H](OC(C)(C)C)C(=O)O` (single isomer, unassigned) [Example 243] to `Cc1nc(C(C)O)c(-c2ccc(OCCc3ccc(F)cc3)c(F)c2)c(N2CCC(C)(C)CC2)c1[C@H](OC(C)(C)C)C(=O)O` (single isomer, unassigned) [Example 237], the EC50 falls from 7 nM to 3 nM (2.3-fold). The second is the more potent here.
